Experimental data published in patent US12522594B2, “2-heteroaryl-3-oxo-2,3-dihydropyridazine-4-carboxamides for the treatment of cancer” (Deutsches Krebsforschungszentrum, priority 2017, dated 2026).

Experiments:
[1] = target: T1, AHR (Homo sapiens, UniProt P35869); assay: In vitro assay 1: antagonism in human cell line (transactivation assay, U87 cells prestimulated with kynurenic acid, DRE firefly luciferase reporter); assay type: cell-based; parameters: host or cells: U87 glioblastoma cells, stably transfected with DRE firefly luciferase and renilla reporter constructs; conditions: 150 uM kynurenic acid, 20 hours, read-out: Assay 1: AHR-luc Hum Antagonism IC50
T1 sequence (P35869 11-848): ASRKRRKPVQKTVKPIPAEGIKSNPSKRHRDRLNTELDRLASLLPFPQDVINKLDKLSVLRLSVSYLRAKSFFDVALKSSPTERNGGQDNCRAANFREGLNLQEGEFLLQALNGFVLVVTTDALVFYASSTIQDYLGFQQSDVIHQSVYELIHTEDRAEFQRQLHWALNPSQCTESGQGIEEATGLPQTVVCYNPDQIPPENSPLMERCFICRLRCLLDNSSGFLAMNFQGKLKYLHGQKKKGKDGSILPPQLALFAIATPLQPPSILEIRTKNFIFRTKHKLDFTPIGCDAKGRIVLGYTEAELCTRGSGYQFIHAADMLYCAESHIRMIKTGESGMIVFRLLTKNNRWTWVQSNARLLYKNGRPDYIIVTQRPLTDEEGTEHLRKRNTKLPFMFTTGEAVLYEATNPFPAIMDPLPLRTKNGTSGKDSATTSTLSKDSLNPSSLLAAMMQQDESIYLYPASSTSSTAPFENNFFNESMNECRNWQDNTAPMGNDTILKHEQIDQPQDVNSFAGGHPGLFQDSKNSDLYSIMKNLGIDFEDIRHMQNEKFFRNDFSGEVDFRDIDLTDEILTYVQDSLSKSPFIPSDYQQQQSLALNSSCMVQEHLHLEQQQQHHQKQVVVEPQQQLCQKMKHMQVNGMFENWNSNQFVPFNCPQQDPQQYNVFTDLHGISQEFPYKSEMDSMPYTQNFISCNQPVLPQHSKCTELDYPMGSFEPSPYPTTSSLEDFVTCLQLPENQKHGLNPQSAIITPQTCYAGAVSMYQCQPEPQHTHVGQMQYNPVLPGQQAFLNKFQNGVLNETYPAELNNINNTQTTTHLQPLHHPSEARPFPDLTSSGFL
Method in brief: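 U87 glioblastoma cells with endogenous AHR, stably carrying a DRE-driven firefly luciferase reporter and a constitutive renilla reporter. Cells prestimulated with the AHR agonist kynurenic acid before compound addition; data normalized to positive and negative controls.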

[2] = target: T1, AHR; assay: In vitro assay 2: agonism in human cell line (transactivation assay, U87 cells, DRE firefly luciferase reporter); assay type: cell-based; parameters: host or cells: U87 glioblastoma cells, stably transfected with DRE firefly luciferase and renilla reporter constructs; conditions: no kynurenic acid, 20 hours, read-out: Assay 2: AHR-luc Hum Agonism IC50
Method in brief: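 U87 glioblastoma cells with endogenous AHR, stably carrying DRE-driven firefly luciferase and constitutive renilla reporters. 300 uM kynurenic acid served as positive activation control; data normalized to positive and negative controls.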

Compound	IC50 [1] [nM]	IC50 [2] [nM]
Cn1cc(-n2nc(-c3ccc(Cl)cc3)cc(C(=O)NC[C@H](O)CF)c2=O)cn1 [Example 270, 6-(4-Chlorophenyl)-N-[(2S)-3-fluoro-2-hydroxypropyl]-2-(1-methyl-1H-pyrazol-4-yl)-3-oxo-2,3-dihydropyridazine-4-carboxamide]	64.5	> 20000
C[C@@H](CO)NC(=O)c1cc(-c2ccc(C(F)F)nc2)nn(-c2cccnc2)c1=O [Example 180, 6-[6-(Difluoromethyl)pyridin-3-yl]-N-[(2S)-1-hydroxypropan-2-yl]-3-oxo-2-(pyridin-3-yl)-2,3-dihydropyridazine-4-carboxamide]	794	> 20000
O=C(N[C@H]1COC[C@@H]1O)c1cc(-c2ccc(Cl)cc2)nn(-c2cncc(F)c2)c1=O (single isomer, unassigned; enantiomer 1) [Example 155, 6-(4-Chlorophenyl)-2-(5-fluoropyridin-3-yl)-N-[(trans)-4-hydroxytetrahydrofuran-3-yl]-3-oxo-2,3-dihydropyridazine-4-carboxamide, Enantiomer 1]	90.5	> 20000
C[C@@H](CO)NC(=O)c1cc(-c2ccc(C#N)cc2)nn(-c2cccnc2)c1=O [Example 179, 6-(4-Cyanophenyl)-N-[(2S)-1-hydroxypropan-2-yl]-3-oxo-2-(pyridin-3-yl)-2,3-dihydropyridazine-4-carboxamide]	736	> 20000
C[C@@H](NC(=O)c1cc(-c2ccc(Cl)cc2)nn(-c2cnsc2)c1=O)C(C)(C)O [Example 326, 6-(4-Chlorophenyl)-N-[(2R)-3-hydroxy-3-methylbutan-2-yl]-3-oxo-2-(1,2-thiazol-4-yl)-2,3-dihydropyridazine-4-carboxamide]	0.504	> 20000
Cn1cc(-n2nc(-c3ccc(OC(F)F)cc3)cc(C(=O)NC(C(C)(C)O)C(F)(F)F)c2=O)cn1 (stereo not shown) [Example 305, 6-[4-(Difluoromethoxy)phenyl]-2-(1-methyl-1H-pyrazol-4-yl)-3-oxo-N-(1,1,1-trifluoro-3-hydroxy-3-methylbutan-2-yl)-2,3-dihydropyridazine-4-carboxamide]	1.64	> 20000
Cn1cc(-n2nc(-c3ccc(CF)cc3)cc(C(=O)N[C@H](CO)C(F)(F)F)c2=O)cn1 [Example 275, 6-[4-(Fluoromethyl)phenyl]-2-(1-methyl-1H-pyrazol-4-yl)-3-oxo-N-[(2R)-1,1,1-trifluoro-3-hydroxypropan-2-yl]-2,3-dihydropyridazine-4-carboxamide]	130	> 20000
C[C@H](NC(=O)c1cc(-c2ccc(CF)cc2)nn(-c2cnn(C)c2)c1=O)C(C)(C)O [Example 284, 6-[4-(Fluoromethyl)phenyl]-N-[(2S)-3-hydroxy-3-methylbutan-2-yl]-2-(1-methyl-1H-pyrazol-4-yl)-3-oxo-2,3-dihydropyridazine-4-carboxamide]	571	> 20000
C[C@H](NC(=O)c1cc(-c2ccc(C(F)(F)F)nc2)nn(-c2cncc(F)c2)c1=O)C(C)(C)O [Example 340, 2-(5-Fluoropyridin-3-yl)-N-[(2S)-3-hydroxy-3-methylbutan-2-yl]-3-oxo-6-[6-(trifluoromethyl)pyridin-3-yl]-2,3-dihydropyridazine-4-carboxamide]	49.7	> 20000
O=C(N[C@H]1COC[C@H]1O)c1cc(-c2ccc(C(F)F)nc2)nn(-c2cccnc2)c1=O (relative stereo) [Example 182, 6-[6-(Difluoromethyl)pyridin-3-yl]-N-[(cis)-4-hydroxytetrahydrofuran-3-yl]-3-oxo-2-(pyridin-3-yl)-2,3-dihydropyridazine-4-carboxamide]	6110	> 20000
O=C(NC[C@@H](O)CO)c1cc(-c2ccc(Cl)cc2)nn(-c2cncc(F)c2)c1=O [Example 98, 6-(4-Chlorophenyl)-N-[(2R)-2,3-dihydroxypropyl]-2-(5-fluoropyridin-3-yl)-3-oxo-2,3-dihydropyridazine-4-carboxamide]	251	> 20000
O=C(NC[C@@H](O)C(F)(F)F)c1cc(-c2ccc(OC(F)(F)F)cc2)nn(-c2cccnc2)c1=O [Example 293, 3-Oxo-2-(pyridin-3-yl)-N-[(2R)-3,3,3-trifluoro-2-hydroxypropyl]-6-[4-(trifluoromethoxy)phenyl]-2,3-dihydropyridazine-4-carboxamide]	82.2	> 20000
C[C@H](NC(=O)c1cc(-c2ccc(Cl)cc2)nn(-c2cnsc2)c1=O)C(C)(C)O [Example 209, 6-(4-Chlorophenyl)-N-[(2S)-3-hydroxy-3-methylbutan-2-yl]-3-oxo-2-(1,2-thiazol-4-yl)-2,3-dihydropyridazine-4-carboxamide]	1.24	> 20000
O=C(NC[C@H](O)C(F)(F)F)c1cc(-c2ccc(Cl)cc2)nn(-c2cncc(F)c2)c1=O [Example 128, 6-(4-Chlorophenyl)-2-(5-fluoropyridin-3-yl)-3-oxo-N-[(2S)-3,3,3-trifluoro-2-hydroxypropyl]-2,3-dihydropyridazine-4-carboxamide]	5.05	> 20000
C[C@@H](CO)NC(=O)c1cc(-c2ccc(N(C)C)cc2)nn(-c2cccnc2)c1=O [Example 191, 6-[4-(Dimethylamino)phenyl]-N-[(2S)-1-hydroxypropan-2-yl]-3-oxo-2-(pyridin-3-yl)-2,3-dihydropyridazine-4-carboxamide]	3.35	> 20000
O=C(N[C@H](CO)C(F)(F)F)c1cc(-c2ccc(CF)cc2)nn(-c2cccnc2)c1=O [Example 282, 6-[4-(Fluoromethyl)phenyl]-3-oxo-2-(pyridin-3-yl)-N-[(2R)-1,1,1-trifluoro-3-hydroxypropan-2-yl]-2,3-dihydropyridazine-4-carboxamide]	304	> 20000
O=C(N[C@H]1COC[C@H]1O)c1cc(-c2ccc(Cl)cc2)nn(-c2ccnnc2)c1=O (relative stereo) [Example 181, 3-(4-Chlorophenyl)-N-[(cis)-4-hydroxytetrahydrofuran-3-yl]-6-oxo-6H-1,4′-bipyridazine-5-carboxamide]	911	> 20000
CC(C)(O)C(NC(=O)c1cc(-c2ccc(Cl)cc2)nn(-c2cccnc2)c1=O)C(F)(F)F (single isomer, unassigned; enantiomer 2) [Example 123, 6-(4-Chlorophenyl)-3-oxo-2-(pyridin-3-yl)-N-(1,1,1-trifluoro-3-hydroxy-3-methylbutan-2-yl)-2,3-dihydropyridazine-4-carboxamide, Enantiomer 2]	5.7	> 20000
O=C(N[C@H](CO)C1CC1)c1cc(-c2ccc(Cl)cc2)nn(-c2cncnc2)c1=O [Example 273, 6-(4-Chlorophenyl)-N-[(1S)-1-cyclopropyl-2-hydroxyethyl]-3-oxo-2-(pyrimidin-5-yl)-2,3-dihydropyridazine-4-carboxamide]	101	> 20000
C[C@@H](CO)NC(=O)c1cc(-c2ccc(C(F)(F)F)cc2)nn(-c2cnsc2)c1=O [Example 205, N-[(2S)-1-Hydroxypropan-2-yl]-3-oxo-2-(1,2-thiazol-4-yl)-6-[4-(trifluoromethyl)phenyl]-2,3-dihydropyridazine-4-carboxamide]	1.06	> 20000
COC[C@H](CO)NC(=O)c1cc(-c2ccc(Cl)cc2)nn(-c2cncc(F)c2)c1=O [Example 86, 6-(4-Chlorophenyl)-2-(5-fluoropyridin-3-yl)-N-[(2S)-1-hydroxy-3-methoxypropan-2-yl]-3-oxo-2,3-dihydropyridazine-4-carboxamide]	55.9	> 20000
CC(C)(O)C(NC(=O)c1cc(-c2ccc(C(F)(F)F)cc2)nn(-c2cccnc2)c1=O)C(F)(F)F (single isomer, unassigned; (+)) [Example 197, (+)-3-Oxo-2-(pyridin-3-yl)-N-(1,1,1-trifluoro-3-hydroxy-3-methylbutan-2-yl)-6-[4-(trifluoromethyl)phenyl]-2,3-dihydropyridazine-4-carboxamide]	0.502	> 20000
O=C(N[C@H]1CCC[C@H]1O)c1cc(-c2ccc(Cl)cc2)nn(-c2cncc(F)c2)c1=O [Example 129, 6-(4-Chlorophenyl)-2-(5-fluoropyridin-3-yl)-N-[(1S,2R)-2-hydroxycyclopentyl]-3-oxo-2,3-dihydropyridazine-4-carboxamide]	5.53	> 20000
